{"source": "patent US10561703B2", "about": "“Method of modulating sex hormone levels using a sex hormone secretion modulator” (GEMVAX & KAEL CO., LTD., priority 2013, dated 2020)", "tested_on": "LH", "experiment": "LH level in blood (serum CLIA) after repeated sc PEP-1", "type": "in vivo, SD rats", "procedure": "PEP-1 (peptide of SEQ ID NO: 1), lyophilized white powder, obtained according to the method mentioned in example 1 was dissolved in 0.9% of saline, considering the correction factor of PEP-1 (purity: 94.13%, content: 92.36%, correction factor: 1.15). 50 mg/mL stock solution was further diluted into 20 mg/mL, 2 mg/mL, and 1 mg/mL with 0.9% saline, and stored at 4° C. for a week until the use.\nThe purpose of this example is to confirm the change of sexual hormones in blood from SD rats with 7 days repeated daily administration of SEQ ID NO: 1 peptide, PEP-1. This experiment followed the Ethics Regulation of Animal Test by KAMSI Inc. (Korea Animal Medical Science Institute). In addition, this experiment, Non-GLP experiment, referred to the MFDS (Ministry of Food and Drug Safety) notification; Agent 2013-40 (5th April 2013), Principles of Good Laboratory Practice (1997).\nSPF Rats (Crlj:CD(SD)) were purchased from ORIENTBio Inc. (Mokdong-ri, Buk-myeon, Gapyeong-gun, Gyeonggi-do, Republic of Korea). 75 male (6.5 weeks old and 190˜210 g) and 75 female (6.5 weeks old and 160˜180 g) rats were monitored for 4 days, and 64 of male and female rats (each) were selected for the experiment. Raising condition is as follows; 23±3° C. of temperature, […] of relative humidity, 10˜20 times/hr of number of air changes, 12 hours (8 a.m.˜8 p.m.) of lighting with 150˜300 Lux of intensity.\n64 male and female […] (mentioned above) were divided into 8 groups. Administration regimen, for example, drugs, routes, dosages, and volumes were as follows:\nThe detailed administration regimen is as follows; once a day, twice a day and twice a week in each experimental group. Injection initiated at 10 a.m. every day, and each rat was injected at one minute intervals. Rats in Group 9, 10, 13 and 14 were injected twice a week. Administration of high dose test agent preceded that of low dose. The volume of injection was calculated using recently measured weight of rats, and it was 5 mL/kg. Subcutaneous injection was performed as follows; assistant tilted the back of rat upward, and experimenter sterilized the back of rat with 70% alcohol, followed by subcutaneous injection of test agent with 26 G syringe.\n1.4 mL of blood sample (0.7 mL of serum) was collected after measurement of weight (Day 0). Next day (1 Day), 1.4 mL of blood sample (0.7 mL of serum) was collected twice after injection of test agent (4 hrs and 8 hrs after administration of test agent). For next 6 days (Day 2˜Day 7), 1.4 mL of blood was extracted once everyday (4 hours after injection of test agent). Dose and volume of test agent of each group followed the Table 3, and injection time zone was same every day. Blood was extracted from the jugular vein, and left at room temperature for 30 minutes. Serum was separated using centrifugation (10,000 rpm for 5 minutes), and stored at −70±5° C. in Deep freezer until the use. Blood extraction from each subject was done in the same time zone every day.\nA CLIA (Chemi-Luminescence Immune Assay) Kit was used to analyze Testosterone, Estradiol E2, FSH (Follicle stimulating hormone), and LH (Luteinizing hormone). Analysis was completed within 48 hrs after blood extraction (Laboratory Medicine Department, Chung-Ang University Hospital), and detailed method is as follows; One-way ANOVA was used to verify the comparison between the vehicle and PEP-1, and between different doses of PEP-1. For further analysis, Duncan test was used as parametric test and Dunnett's test as non-parametric test. p<0.05 represents the statistical significance, and all statistical analysis was carried out with SPSS 10.1.\nLH was analyzed using the samples prepared from example 2. 50 μL of serum was used for analysis. Fundamentals of analysis is Two-site sandwich immunoassay based on direct chemi-luminescent. As mentioned in example 2, CLIA (Chemi-luminescence immune assay) Kit was used, following the manufacture's protocol.", "data": [{"sequence": "EARPALLTSRLRFIPK (listed as Homo sapiens) [PEP-1, hormone secretion modulator / GnRH analog]", "values": [{"measurement": "LH level in blood", "setting": "G3 Male 5 mg/kg sc 1/day x7, 7 days", "result": 0.13, "unit": "mIU/mL"}, {"measurement": "LH level in blood", "setting": "G4 Female 5 mg/kg sc 1/day x7, 4 hr", "result": 0.16, "unit": "mIU/mL"}, {"measurement": "LH level in blood", "setting": "G4 Female 5 mg/kg sc 1/day x7, 8 hr", "result": 0.24, "unit": "mIU/mL"}, {"measurement": "LH level in blood", "setting": "G4 Female 5 mg/kg sc 1/day x7, 2 days", "result": 0.19, "unit": "mIU/mL"}, {"measurement": "LH level in blood", "setting": "G4 Female 5 mg/kg sc 1/day x7, 3 days", "result": 0.13, "unit": "mIU/mL"}, {"measurement": "LH level in blood", "setting": "G4 Female 5 mg/kg sc 1/day x7, 4 days", "result": 0.13, "unit": "mIU/mL"}, {"measurement": "LH level in blood", "setting": "G4 Female 5 mg/kg sc 1/day x7, 5 days", "result": 0.14, "unit": "mIU/mL"}, {"measurement": "LH level in blood", "setting": "G4 Female 5 mg/kg sc 1/day x7, 6 days", "result": 0.14, "unit": "mIU/mL"}, {"measurement": "LH level in blood", "setting": "G4 Female 5 mg/kg sc 1/day x7, 7 days", "result": 0.16, "unit": "mIU/mL"}, {"measurement": "LH level in blood", "setting": "G4 Female 5 mg/kg sc 1/day x7, pre", "result": 0.12, "unit": "mIU/mL"}, {"measurement": "LH level in blood", "setting": "G6 Female 10 mg/kg sc 1/day x7, 4 hr", "result": 0.41, "unit": "mIU/mL"}, {"measurement": "LH level in blood", "setting": "G6 Female 10 mg/kg sc 1/day x7, 8 hr", "result": 0.26, "unit": "mIU/mL"}, {"measurement": "LH level in blood", "setting": "G6 Female 10 mg/kg sc 1/day x7, 2 days", "result": 0.22, "unit": "mIU/mL"}, {"measurement": "LH level in blood", "setting": "G6 Female 10 mg/kg sc 1/day x7, 3 days", "result": 0.19, "unit": "mIU/mL"}, {"measurement": "LH level in blood", "setting": "G6 Female 10 mg/kg sc 1/day x7, 4 days", "result": 0.15, "unit": "mIU/mL"}, {"measurement": "LH level in blood", "setting": "G6 Female 10 mg/kg sc 1/day x7, 5 days", "result": 0.15, "unit": "mIU/mL"}, {"measurement": "LH level in blood", "setting": "G6 Female 10 mg/kg sc 1/day x7, 6 days", "result": 0.17, "unit": "mIU/mL"}, {"measurement": "LH level in blood", "setting": "G6 Female 10 mg/kg sc 1/day x7, 7 days", "result": 0.16, "unit": "mIU/mL"}, {"measurement": "LH level in blood", "setting": "G6 Female 10 mg/kg sc 1/day x7, pre", "result": 0.12, "unit": "mIU/mL"}, {"measurement": "LH level in blood", "setting": "G8 Female 10 mg/kg sc 2/day x4, 4 hr", "result": 0.22, "unit": "mIU/mL"}, {"measurement": "LH level in blood", "setting": "G8 Female 10 mg/kg sc 2/day x4, 8 hr", "result": 0.15, "unit": "mIU/mL"}, {"measurement": "LH level in blood", "setting": "G8 Female 10 mg/kg sc 2/day x4, 2 days", "result": 0.17, "unit": "mIU/mL"}, {"measurement": "LH level in blood", "setting": "G8 Female 10 mg/kg sc 2/day x4, 3 days", "result": 0.28, "unit": "mIU/mL"}, {"measurement": "LH level in blood", "setting": "G8 Female 10 mg/kg sc 2/day x4, 4 days", "result": 0.13, "unit": "mIU/mL"}, {"measurement": "LH level in blood", "setting": "G8 Female 10 mg/kg sc 2/day x4, 5 days", "result": 0.23, "unit": "mIU/mL"}, {"measurement": "LH level in blood", "setting": "G8 Female 10 mg/kg sc 2/day x4, 6 days", "result": 0.15, "unit": "mIU/mL"}, {"measurement": "LH level in blood", "setting": "G8 Female 10 mg/kg sc 2/day x4, 7 days", "result": 0.28, "unit": "mIU/mL"}, {"measurement": "LH level in blood", "setting": "G8 Female 10 mg/kg sc 2/day x4, pre", "result": 0.13, "unit": "mIU/mL"}, {"measurement": "LH level in blood", "setting": "G9 Male 10 mg/kg sc 2/week x2 (days 1,7), 4 hr", "result": 0.62, "unit": "mIU/mL"}, {"measurement": "LH level in blood", "setting": "G9 Male 10 mg/kg sc 2/week x2 (days 1,7), 8 hr", "result": 0.14, "unit": "mIU/mL"}, {"measurement": "LH level in blood", "setting": "G9 Male 10 mg/kg sc 2/week x2 (days 1,7), 2 days", "result": 0.12, "unit": "mIU/mL"}, {"measurement": "LH level in blood", "setting": "G9 Male 10 mg/kg sc 2/week x2 (days 1,7), 3 days", "result": 0.12, "unit": "mIU/mL"}, {"measurement": "LH level in blood", "setting": "G9 Male 10 mg/kg sc 2/week x2 (days 1,7), 4 days", "result": 0.13, "unit": "mIU/mL"}, {"measurement": "LH level in blood", "setting": "G9 Male 10 mg/kg sc 2/week x2 (days 1,7), 5 days", "result": 0.14, "unit": "mIU/mL"}, {"measurement": "LH level in blood", "setting": "G9 Male 10 mg/kg sc 2/week x2 (days 1,7), 6 days", "result": 0.11, "unit": "mIU/mL"}, {"measurement": "LH level in blood", "setting": "G9 Male 10 mg/kg sc 2/week x2 (days 1,7), 7 days", "result": 0.67, "unit": "mIU/mL"}, {"measurement": "LH level in blood", "setting": "G9 Male 10 mg/kg sc 2/week x2 (days 1,7), pre", "result": 0.12, "unit": "mIU/mL"}, {"measurement": "LH level in blood", "setting": "G10 Female 10 mg/kg sc 2/week x2 (days 1,7), 4 hr", "result": 0.25, "unit": "mIU/mL"}, {"measurement": "LH level in blood", "setting": "G10 Female 10 mg/kg sc 2/week x2 (days 1,7), 8 hr", "result": 0.23, "unit": "mIU/mL"}, {"measurement": "LH level in blood", "setting": "G10 Female 10 mg/kg sc 2/week x2 (days 1,7), 2 days", "result": 0.17, "unit": "mIU/mL"}, {"measurement": "LH level in blood", "setting": "G10 Female 10 mg/kg sc 2/week x2 (days 1,7), 3 days", "result": 0.14, "unit": "mIU/mL"}, {"measurement": "LH level in blood", "setting": "G10 Female 10 mg/kg sc 2/week x2 (days 1,7), 4 days", "result": 0.13, "unit": "mIU/mL"}, {"measurement": "LH level in blood", "setting": "G10 Female 10 mg/kg sc 2/week x2 (days 1,7), 5 days", "result": 0.15, "unit": "mIU/mL"}, {"measurement": "LH level in blood", "setting": "G10 Female 10 mg/kg sc 2/week x2 (days 1,7), 6 days", "result": 0.12, "unit": "mIU/mL"}, {"measurement": "LH level in blood", "setting": "G10 Female 10 mg/kg sc 2/week x2 (days 1,7), 7 days", "result": 0.26, "unit": "mIU/mL"}, {"measurement": "LH level in blood", "setting": "G10 Female 10 mg/kg sc 2/week x2 (days 1,7), pre", "result": 0.25, "unit": "mIU/mL"}, {"measurement": "LH level in blood", "setting": "G11 Male 100 mg/kg sc 1/day x7, 4 hr", "result": 1.16, "unit": "mIU/mL"}, {"measurement": "LH level in blood", "setting": "G11 Male 100 mg/kg sc 1/day x7, 8 hr", "result": 0.18, "unit": "mIU/mL"}, {"measurement": "LH level in blood", "setting": "G11 Male 100 mg/kg sc 1/day x7, 2 days", "result": 0.28, "unit": "mIU/mL"}, {"measurement": "LH level in blood", "setting": "G11 Male 100 mg/kg sc 1/day x7, 3 days", "result": 0.23, "unit": "mIU/mL"}, {"measurement": "LH level in blood", "setting": "G11 Male 100 mg/kg sc 1/day x7, 4 days", "result": 0.18, "unit": "mIU/mL"}]}]}
